{"source": "patent US9593149B2", "about": "“Amylin and calcitonin receptor agonist” (Novo Nordisk A/S, priority 2014, dated 2017)", "key": {"[1]": {"target": "T1, human amylin 3(a) receptor (human calcitonin receptor + RAMP-3), BHK570 cells (Homo sapiens, UniProt O60896+P30988)", "T1 construct": "host or cells: BHK570", "T1 sequence (O60896 24-148, one chain of several)": "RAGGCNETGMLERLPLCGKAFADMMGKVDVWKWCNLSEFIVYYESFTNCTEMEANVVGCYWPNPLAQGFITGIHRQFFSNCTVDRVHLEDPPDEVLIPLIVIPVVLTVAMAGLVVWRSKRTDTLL", "test": "Assay (II)a functional CRE-luciferase assay with albumin, human amylin receptor", "format": "cell-based", "conditions": "Tested with HSA; read-out: hAmylin-R funct. EC50", "from_the_text": "(§1) Assay(II)a—Human Calcitonin and Amylin Receptor Assay\n(§2) 1. Luciferase Assay Outline\n(§3) Activation of calcitonin and amylin (co-expression of calcitonin receptor and receptor activity modifying proteins (RAMP)) receptors lead to increased intracellular concentrations of cAMP. Consequently, transcription is activated by promoters containing multiple copies of the cAMP response element (CRE). It is thus possible to measure amylin activity by the use of a CRE luciferase reporter gene introduced into BHK cells also expressing calcitonin or amylin receptors.\n(§4) 2. Construction of Calcitonin (a)—and Amylin 3(a)—Receptor/CRE-Luc Cell Line.\n(§5) A BHK570 cell line was stably transfected with the human calcitonin receptor and a CRE-responsive luciferase reporter gene. The cell line was further transfected with RAMP-3, using standard methods. This turns the calcitonin receptor into an amylin 3(a) receptor. Methotrexate, Neomycin, and Hygromycin are selection markers for luciferase, the calcitonin receptor, and RAMP-3, respectively.\n(§6) To perform activity assays, BHK calcitonin (a) receptor- or amylin 3(a)-receptor/CRE-luc cells were seeded in white 96 well culture plates at a density of about 20.000 cells/well. […] After incubation overnight at 37° C. and 5% CO2, the growth medium was replaced by 50 μl/well assay medium (DMEM (without phenol red), Glutamax™, 10% FBS, and 10 mM Hepes, pH 7.4). Further, 50 μl/well of standard or sample in assay buffer were added.\n(§7) After 3 hours incubation at 37° C. and 5% CO2, the assay medium with standard or sample were removed and replaced by 100 μl/well PBS. Further, 100 μl/well LucLite™ was added. The plates were sealed and incubated at room temperature for 30 minutes. Finally, luminescence was tested on a TopCounter (Packard) in SPC (single photon counting) mode."}, "rat calcitonin receptor": {"target": "T2, rat calcitonin receptor (Rattus norvegicus, UniProt P32214)", "T2 construct": "expressed in transfected cells; host or cells: BHK tk'ts 13 (transient, FuGENE 6)", "T2 sequence (P32214 25-479 isoform P32214-2 limits assumed)": "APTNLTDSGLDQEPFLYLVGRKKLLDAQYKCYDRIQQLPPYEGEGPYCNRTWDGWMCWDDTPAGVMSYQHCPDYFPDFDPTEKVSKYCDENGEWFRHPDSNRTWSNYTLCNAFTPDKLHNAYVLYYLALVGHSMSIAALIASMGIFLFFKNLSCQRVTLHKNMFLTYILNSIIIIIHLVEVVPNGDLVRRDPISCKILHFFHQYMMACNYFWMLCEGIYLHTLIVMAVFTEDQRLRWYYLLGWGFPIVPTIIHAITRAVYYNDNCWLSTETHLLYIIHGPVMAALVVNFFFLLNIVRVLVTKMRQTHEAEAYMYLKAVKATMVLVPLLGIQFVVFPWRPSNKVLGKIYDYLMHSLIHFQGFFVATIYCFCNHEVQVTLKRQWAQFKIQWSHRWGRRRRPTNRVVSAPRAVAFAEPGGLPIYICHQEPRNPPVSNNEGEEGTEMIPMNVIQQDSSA", "test": "Assay (VIII) binding to the rat calcitonin receptor", "conditions": "membranes; read-out: rCT-R binding IC50", "how_it_was_run": "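Competition binding on membranes from BHK tk'ts 13 cells transiently transfected with rat calcitonin receptor, otherwise run as the human receptor assay. Plates washed in cold HBSS, lysed in 0.1 M NaOH/1% SDS and scintillation-counted. IC50 from one-site competition fit as affinity measure.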"}, "[2]": {"target": "T3, human calcitonin (a) receptor, BHK570 cells (Homo sapiens, UniProt P30988)", "T3 construct": "host or cells: BHK570", "T3 sequence (P30988 25-474)": "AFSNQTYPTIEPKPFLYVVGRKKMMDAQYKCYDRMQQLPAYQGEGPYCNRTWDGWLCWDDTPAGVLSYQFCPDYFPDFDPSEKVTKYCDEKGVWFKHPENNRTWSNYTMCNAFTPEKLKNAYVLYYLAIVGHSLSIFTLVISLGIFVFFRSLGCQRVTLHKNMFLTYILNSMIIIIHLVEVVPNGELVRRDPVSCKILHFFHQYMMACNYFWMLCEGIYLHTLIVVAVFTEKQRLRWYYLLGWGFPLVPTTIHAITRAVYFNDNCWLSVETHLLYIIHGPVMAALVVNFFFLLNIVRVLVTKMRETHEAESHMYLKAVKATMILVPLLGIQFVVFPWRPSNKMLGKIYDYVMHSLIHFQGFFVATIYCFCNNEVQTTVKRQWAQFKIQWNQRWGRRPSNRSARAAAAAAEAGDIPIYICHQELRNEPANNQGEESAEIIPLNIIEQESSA", "test": "Assay (II)a functional CRE-luciferase assay with albumin, human calcitonin receptor", "format": "cell-based", "conditions": "Tested with HSA; read-out: hCTR funct. EC50", "from_the_text": "as §1, §2, §3, §4, §5, §6, §7"}, "[3]": {"test": "Assay (IV) determination of solubility", "format": "physicochemical", "description": "Assay (IV)—Determination of Solubility\nThe mimylin peptide was dissolved in water at ˜500 nmol/ml and mixed 1:1 with a series of buffers (100 mM glycylglycine pH 3.0, 100 mM glycylglycine pH 4.0, 100 mM glycylglycine pH 5.0, 100 mM bistrispropane pH 6.0, 100 mM bistrispropane pH 6.5, 100 mM bistrispropane pH 7.0, 100 mM bistrispropane pH 7.5, 100 mM bistrispropane pH 8.0)."}, "[4]": {"target": "T3, human calcitonin (a) receptor, BHK570 cells", "test": "Assay (II)b functional CRE-luciferase assay without albumin, human calcitonin receptor", "format": "cell-based", "conditions": "Tested without HSA; read-out: hCTR funct. EC50", "how_it_was_run": "(§8)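 BHK570 cells stably expressing human calcitonin receptor with CRE-luciferase reporter, plus RAMP-3 for the amylin 3(a) line. Cells stimulated 3 hours at 37 °C in albumin-free assay medium (0.1% ovalbumin, 10 mM Hepes pH 7.4); cAMP-driven luciferase read by luminescence.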"}, "[5]": {"target": "T1, human amylin 3(a) receptor (human calcitonin receptor + RAMP-3), BHK570 cells", "test": "Assay (II)b functional CRE-luciferase assay without albumin, human amylin receptor", "format": "cell-based", "conditions": "Tested without HSA; read-out: hAmylin-R funct. EC50", "how_it_was_run": "as §8"}, "[6]": {"target": "T4, human amylin receptor (human calcitonin receptor + human RAMP3), BHK tk'ts 13 cells (Homo sapiens, UniProt O60896+P30988)", "T4 construct": "expressed in transfected cells; host or cells: BHK tk'ts 13", "T4 sequence (O60896 24-148, one chain of several)": "as the sequence (O60896 24-148, one chain of several) above", "test": "Assay (Va) binding to the human amylin receptor (whole cell)", "conditions": "read-out: hAmylin-R binding IC50", "description": "The day before the assay the cells were Seeded into Poly-D-Lysin coated 384W Opaque White, BD BioCoat plates (10000 cells/well) and Incubated overnight at 37° C., 5% CO2, 95% humidity."}}, "note": "Numbered stars: 1 amine (or outer) side, 2 acyl side, 3 side chain; on linkers, the order of the positions; unused ones are H or OH. Side chains are listed from the residue outwards. Peptide text beside a SMILES is read from it. * marks the point of attachment. C20 diacid = O=C(O)CCCCCCCCCCCCCCCCCCC(=O)*; γGlu = O=C(O)[C@H](CCC(=O)[*:2])N[*:1]", "data": [{"smiles": "CC(C)C[C@H](NC(=O)[C@H](C)NC(=O)[C@H](C)NC(=O)[C@@H](NC(=O)[C@H](CO)NC(=O)[C@H](CC(C)C)NC(=O)[C@H](CCCCNC(=O)CC[C@H](NC(=O)CCCCCCCCCCCCCCCCCCC(=O)O)C(=O)O)NC(=O)[C@H](CO)NC(=O)[C@H](C)N)[C@@H](C)O)C(=O)NCC(=O)N[C@@H](CCCNC(=N)N)C(=O)N[C@@H](CC(C)C)C(=O)N[C@@H](CO)C(=O)N[C@@H](C)C(=O)N[C@@H](CCC(=O)O)C(=O)N[C@@H](CC(C)C)C(=O)N[C@@H](Cc1c[nH]cn1)C(=O)N[C@@H](CCC(=O)O)C(=O)N[C@@H](CC(C)C)C(=O)N[C@@H](C)C(=O)N[C@H](C(=O)N[C@@H](CC(C)C)C(=O)N1CCC[C@H]1C(=O)N[C@@H](CCCNC(=N)N)C(=O)N[C@H](C(=O)N[C@@H](CCC(=O)O)C(=O)N[C@H](C(=O)NCC(=O)N[C@@H](CO)C(=O)NCC(=O)N[C@@H](CO)C(=O)N1CCC[C@H]1C(N)=O)[C@@H](C)O)[C@@H](C)O)[C@@H](C)O", "note": "[compound 52, [des1, 4K(C20 diacid-gGlu), 30S, 31G]mimylin] (H-ASK([γGlu-C20 diacid])LSTAALGRLSAELHELATLPRTETGSGSP-NH2; N-terminus assumed)", "values": [{"measurement": "EC50", "setting": "[1]", "result": 74, "unit": "pM"}, {"measurement": "IC50", "setting": "rat calcitonin receptor", "result": 114, "unit": "pM"}, {"measurement": "EC50", "setting": "[2]", "result": 30, "unit": "pM"}, {"measurement": "solubility at 18 h", "setting": "[3]; bistrispropane buffer, pH 6.5", "result": "≥ 200", "unit": "µM"}, {"measurement": "solubility at 18 h", "setting": "[3]; bistrispropane buffer, pH 7.5", "result": "≥ 200", "unit": "µM"}, {"measurement": "solubility at 18 h", "setting": "[3]; bistrispropane buffer, pH 6.0", "result": "≥ 200", "unit": "µM"}, {"measurement": "solubility at 18 h", "setting": "[3]; bistrispropane buffer, pH 7.0", "result": "≥ 200", "unit": "µM"}, {"measurement": "solubility at 18 h", "setting": "[3]; bistrispropane buffer, pH 8.0", "result": "≥ 200", "unit": "µM"}, {"measurement": "solubility at 18 h", "setting": "[3]; glycylglycine buffer, pH 3.0", "result": "≥ 200", "unit": "µM"}, {"measurement": "solubility at 18 h", "setting": "[3]; glycylglycine buffer, pH 4.0", "result": "≥ 200", "unit": "µM"}, {"measurement": "solubility at 18 h", "setting": "[3]; glycylglycine buffer, pH 5.0", "result": "≥ 200", "unit": "µM"}, {"measurement": "EC50", "setting": "[4]", "result": 34, "unit": "pM"}, {"measurement": "EC50", "setting": "[5]", "result": 39, "unit": "pM"}]}, {"smiles": "CC(C)C[C@H](NC(=O)CNC(=O)[C@H](CO)NC(=O)[C@H](C)NC(=O)CCCCCCCCCCCCCCCCCCC(=O)O)C(=O)N[C@@H](CO)C(=O)N[C@H](C(=O)N[C@@H](C)C(=O)N[C@@H](C)C(=O)N[C@@H](CC(C)C)C(=O)NCC(=O)N[C@@H](CCCNC(=N)N)C(=O)N[C@@H](CC(C)C)C(=O)N[C@@H](CO)C(=O)N[C@@H](CCC(N)=O)C(=O)N[C@@H](CCC(=O)O)C(=O)N[C@@H](CC(C)C)C(=O)N[C@@H](Cc1c[nH]cn1)C(=O)N[C@@H](CCC(=O)O)C(=O)N[C@@H](CC(C)C)C(=O)N[C@@H](CCC(N)=O)C(=O)N[C@H](C(=O)N[C@@H](Cc1ccc(O)cc1)C(=O)N1CCC[C@H]1C(=O)N[C@@H](CCCNC(=N)N)C(=O)N[C@H](C(=O)N[C@@H](CCC(=O)O)C(=O)N[C@H](C(=O)NCC(=O)N[C@@H](CO)C(=O)NCC(=O)N[C@H](C(=O)N[C@@H](Cc1ccc(O)cc1)C(N)=O)[C@@H](C)O)[C@@H](C)O)[C@@H](C)O)[C@@H](C)O)[C@@H](C)O", "note": "[compound 111, [N-terminal(C20 diacid), des1, 4G, 15Q, 21Q, 23Y, 30S, 31G, 32T, 33Y]mimylin] ({C20 diacid}-ASGLSTAALGRLSQELHELQTYPRTETGSGTY-NH2)", "values": [{"measurement": "IC50", "setting": "[6]", "result": 222, "unit": "pM"}, {"measurement": "EC50", "setting": "[1]", "result": 52, "unit": "pM"}, {"measurement": "EC50", "setting": "[2]", "result": 49, "unit": "pM"}, {"measurement": "solubility at 18 h", "setting": "[3]; bistrispropane buffer, pH 6.5", "result": 1, "unit": "µM"}, {"measurement": "solubility at 18 h", "setting": "[3]; glycylglycine buffer, pH 3.0", "result": "≥ 200", "unit": "µM"}, {"measurement": "solubility at 18 h", "setting": "[3]; glycylglycine buffer, pH 4.0", "result": 1, "unit": "µM"}, {"measurement": "solubility at 18 h", "setting": "[3]; glycylglycine buffer, pH 5.0", "result": 2, "unit": "µM"}, {"measurement": "EC50", "setting": "[4]", "result": 24, "unit": "pM"}, {"measurement": "EC50", "setting": "[5]", "result": 22, "unit": "pM"}]}]}
